# Results as given in paper PMC12281142, “A potent phenylalkylamine disrupts mycobacterial membrane bioenergetics and augments bactericidal activity of bedaquiline” (iScience, 2025).
# Tested on: Mab abscessus
# Assay: Time-kill kinetics, Mab abscessus
# Format: cell-based, Mycobacterium abscessus subsp. abscessus
# Conditions: 2xMIC90 (170 μM, 89 μg/mL)
structure (smiles),measurement,value
CCCCCCCCC(C#N)(CCCN(C)CCc1ccc(OC)c(OC)c1)c1ccc(OC)c(OC)c1 (stereo not shown) [PhA2],reduction of CFUs,10^5 fold
